Test results as given in patent publication US20160152540A1, “NEW PROCESS FOR THE MAINTAINING OF A RATIO OF ISOMERS OF CAROTENOID COMPOUNDS” (DSM IP ASSETS B.V., priority 2013, published 2016).

Test: Stability of the astaxanthin stereoisomer ratio (all-E form) in chloroform at 40° C., measured spectrophotometrically at 478 nm
Conditions: tempered at 40° C., stored, sampled periodically
Method: The solution was homogenized and the formulation was tempered at 40° C. The solution was stored and samples were taken periodically and the concentration of astaxanthin was measured spectrophotometrically at 478 nm.

| SMILES | stabilisation of the all-E-form / ratio of stereoisomers of astaxanthin (FIG. 1 and FIG. 2) |
| --- | --- |
| CC(=O)[O-].[K+] [CH3COOK, potassium acetate] | stabilises the all-E-form better than K2CO3 |
| CC1=C(/C=C/C(C)=C/C=C/C(C)=C/C=C/C=C(C)/C=C/C=C(C)/C=C/C2=C(C)C(=O)[C@@H](O)CC2(C)C)C(C)(C)C[C@H](O)C1=O [astaxanthin] | the ratio is deteriorating usually |
